Values of other authors, collected in patent US20030103955A1 (priority 2000, published 2003).

Legend:
cycloxygenase = conditions: with reduction of production of tissue prostaglandines PGF2 and PGE2
[1] = test system: arthritis induced by adjuvant; conditions: compared with aspirin
[2] = octanol/buffer phosphate, ph=7.4

- activity of cycloxygenase (cycloxygenase): inhibits the activity of cycloxygenase
- partition coefficient [2]: 13.0
Compound: O=C(O)Cc1ccccc1Nc1c(Cl)cccc1Cl [Diclofenac]
- anti-inflammatory effect [1]: higher than that of aspirin
